Laboratory results published in the RepoRT retention time repository (doi:10.1021/acs.analchem.2c02893).

Assay: RP, Thermo Scientific Acclaim RSLC 120 C18, 100 × 2.1 mm, 2.2 µm, 30 °C, 0.2 mL/min, estimated dead time 1.1 min; A: 90% water + 10% methanol + 0.01% formic acid + 5 mM ammonium formate, pH 3.61; B: methanol + 0.01% formic acid + 5 mM ammonium formate, pH 3.61; gradient (min/%B) 0/1 1/1 2/39 13/99.9 15/99.9 15.1/1 20.1/1
Conditions: stereoisomer not certain

In order of rising LC retention time:
1. Oc1ccc2c3c1OC1C(O)C=CC4C(C2)NCCC341 (stereo not given) [Morphine-Nor]  2.71 min
2. CC(=O)N(CC(O)CO)c1c(I)c(C(=O)NCC(O)CO)c(I)c(C(=O)NCC(O)CO)c1I (stereo not given) [Iohexol]  2.98 min
3. CCNC1CC(C)S(=O)(=O)c2sc(S(N)(=O)=O)cc21 (stereo not given) [Dorzolamide]  3.19 min
4. NCCc1ccccc1 [Phenethylamine (2-)]  3.57 min
5. CNC(=O)ON=C(SC)C(=O)N(C)C [Oxamyl]  3.77 min
6. CC(C(=O)c1ccc2c(c1)OCO2)N(C)C (stereo not given) [MDDMA-bk]  3.78 min
7. CC(C)NCC(O)COc1ccc(CC(=O)O)cc1 (stereo not given) [Atenolol acid (Metoprolol acid)]  3.93 min
8. COc1ccc2[nH]cc(CC(=O)O)c2c1 [MeOT (5-)]  4.01 min
9. COc1cc2c(cc1OC)C13CCN4CC5=CCOC6CC(=O)N2C1C6C5CC43 (stereo not given) [Brucine]  4.21 min
10. Cc1cc(C)nc(NS(=O)(=O)c2ccc(N)cc2)n1 [Sulfadimidine (Sulfamethazine)]  4.31 min
11. CC[N+]1([O-])CCCC1CNC(=O)c1cc(S(=O)(=O)CC)c(N)cc1OC (stereo not given) [Amisulpride-N-Oxide]  4.33 min
12. C=C1CC(=CC)C(=O)OC2CC[N+]3([O-])CC=C(COC(=O)C1(C)O)C23 (stereo not given) [Seneciphylline-N-oxide]  4.5 min
13. Nc1ccc(S(=O)(=O)Nc2ccc(Cl)nn2)cc1 [Sulfachloropyridazine]  4.56 min
14. CS(=O)(=O)c1ccc(C(O)C(CF)NC(=O)C(Cl)Cl)cc1 (stereo not given) [Florfenicol]  4.73 min
15. CC(=O)OC1CN2CCC1CC2 (stereo not given) [Aceclidine]  4.87 min
16. CN(CCO)c1nc2c(c(=O)n(C)c(=O)n2C)n1C [Cafaminol]  4.94 min
17. Cc1cc2c(s1)Nc1ccccc1N=C2N1CCN(C)CC1 [Olanzapine]  4.99 min
18. CCNc1nc(NC(C)C)[nH]c(=O)n1 [Atrazine-2-hydroxy]  5.03 min
19. CCC(N)Cc1c[nH]c2ccccc12 (stereo not drawn) [ET- alpha]  5.04 min
20. COCCN(C(=O)CS(=O)(=O)O)c1c(C)cccc1C [Dimethachlor-ESA]  5.54 min
21. CCCC(Cc1ccccc1)N1CCCC1 (stereo not given) [Prolintane]  5.56 min
22. CCC(=O)C1C(=O)CC(C(=O)O)CC1=O (stereo not given) [Prohexadione]  5.63 min
23. COc1cc2[nH]c(C)c(CCN3CCN(c4ccccc4)CC3)c2cc1OC [Oxypertine]  5.76 min
24. CC(C)(C)c1n[nH]c(=O)n(N)c1=O [Metribuzin-Diketo (DK)]  5.89 min
25. CC(C)Nc1nc(NC(C)C)[nH]c(=O)n1 [Propazine-2-hydroxy (Prometon-Hydroxy)]  5.96 min
26. CCN(CC)CCOC(=O)C(O)(c1ccccc1)c1ccccc1 [Benactyzine]  6.08 min
27. CCCCN1CCCCC1C(=O)Nc1c(C)cccc1C (stereo not given) [Bupivacaine]  6.18 min
28. CC(=O)Oc1c(C)cc(OCC(O)CNC(C)C)c(C)c1C (stereo not given) [Metipranolol]  6.28 min
29. CCCCNc1ccc(C(=O)OCCN(C)C)cc1 [Tetracaine]  6.43 min
30. CC1Cc2ccccc2N1NC(=O)c1ccc(Cl)c(S(N)(=O)=O)c1 (stereo not given) [Indapamide]  6.61 min
31. COc1cc(OC)nc(NC(=O)NS(=O)(=O)c2ncccc2C(=O)N(C)C)n1 [Nicosulfuron]  6.62 min
32. CC(C)NCC(O)COc1ccc(CCOCC2CC2)cc1 (stereo not given) [Betaxolol]  6.68 min
33. CCCC1CC(C(=O)NC(C(C)Cl)C2OC(SC)C(O)C(O)C2O)N(C)C1 (stereo not given) [Clindamycin]  6.92 min
34. COc1ccc(C(C[N+](C)(C)[O-])C2(O)CCCCC2)cc1 (stereo not given) [Venlafaxine-N-oxide]  6.94 min
35. CNCCC=C1c2ccccc2COc2ccccc21 [Doxepin-Nor]  7.03 min
36. CCCNC(=O)NS(=O)(=O)c1ccc(Cl)cc1 [Chlorpropamide]  7.19 min
37. COc1cc(CCNCc2ccccc2OC)c(OC)cc1Cl [2-C-C-NBoMe]  7.34 min
38. CC(N)Cc1c2ccoc2c(Br)c2ccoc12 (stereo not given) [Bromodragonfly]  7.41 min
39. Nc1ncnc(Nc2ccc(Cl)cc2)n1 [Chlorazanil]  7.46 min
40. Cc1ccc(C(CCN(C)C)c2ccccc2)cc1 (stereo not given) [Tolpropamine]  7.47 min
41. COc1ccc(CNC(=O)c2cc([N+](=O)[O-])ccc2NC(C)CO)cc1OC (stereo not given) [Benzamidenafil]  7.8 min
42. CCCNCC(O)COc1ccccc1C(=O)CCc1ccccc1 (stereo not given) [Propafenone]  7.81 min
43. CCN(CC)CCOCCOC(=O)C1(c2ccccc2)CCCC1 [Pentoxyverine]  7.87 min
44. O=C1CN=C(c2ccccc2F)c2cc(Cl)ccc2N1CCO [Flurazepam-2-OH-Ethyl]  8.19 min
45. Cc1cc(C)n(-c2nc3ccccc3[nH]2)n1 [Rabenzazole]  8.27 min
46. CN(C)C(=O)NC1CCCCCCC1 [Cycluron]  8.47 min
47. O=C1c2ccccc2C(=O)C1C(=O)C(c1ccccc1)c1ccccc1 [Diphacinone]  8.6 min
48. CC1CC2C3CC(F)C4=CC(=O)C=CC4(C)C3C(O)CC2(C)C1(O)C(=O)CO (stereo not given) [Paramethasone]  8.69 min
49. COc1ccc(C(=CC(=O)N2CCOCC2)c2ccc(Cl)cc2)cc1OC [Dimethomorph]  9.22 min
50. CCCOC(C(=O)OC1CCN(C)CC1)(c1ccccc1)c1ccccc1 [Propiverine]  9.36 min
51. CCN(N=O)C(C)Cc1cccc(C(F)(F)F)c1 (stereo not given) [Fenfluramine-n-Nitroso]  9.38 min
52. CCC(C)(CC)c1cc(NC(=O)c2c(OC)cccc2OC)on1 [Isoxaben]  9.42 min
53. CCOC(=O)C(CCc1ccccc1)NC(C)C(=O)N1C(C(=O)O)CC2CCCCC21 (stereo not given) [Trandolapril]  9.55 min
54. O=C1OC(=O)c2ccccc21 [PX-1]  9.58 min
55. CCOC(=O)CC(SP(=S)(OC)OC)C(=O)OCC (stereo not given) [Malathion]  9.59 min
56. CSc1nc(N=[N+]=[N-])nc(NC(C)C)n1 [Aziprotryne]  9.71 min
57. CC(C)OC(=O)Nc1cccc(Cl)c1 [Chlorpropham]  9.78 min
58. CC(Oc1ccc(Oc2nc3ccc(Cl)cc3o2)cc1)C(=O)O (stereo not given) [Fenoxaprop-P]  9.83 min
59. CC(C)(C)NC(=O)C1CCC2C3CCC4NC(=O)C=CC4(C)C3CCC12C (stereo not given) [Finasteride]  9.9 min
60. CON=C(C1=NOCCO1)c1ccccc1Oc1ncnc(Oc2ccccc2Cl)c1F [Fluoxastrobin]  9.95 min
61. CCN(CC)CCOC(=O)C1(C2CCCCC2)CCCCC1 [Dicycloverine]  9.99 min
62. CCOP(=S)(OCC)SCn1nnc2ccccc2c1=O [Azinphos-ethyl]  10.2 min
63. CCCCCCCCn1sccc1=O [2-Octyl-4-isothiazolin-3-one]  10.3 min
64. CC(C)C1CCC(C(=O)NC(Cc2ccccc2)C(=O)O)CC1 (stereo not given) [Nateglinide]  10.4 min
65. CCOC(=O)C(SP(=S)(OC)OC)c1ccccc1 (stereo not given) [Phenthoate]  10.7 min
66. CCOC(=O)C1=NOC(c2ccccc2)(c2ccccc2)C1 [Isoxadifen-ethyl]  10.7 min
67. CCOP(=S)(OCC)OP(=S)(OCC)OCC [Sulfotepp]  10.8 min
68. Cc1c(C(=O)c2cccc3ccccc23)c2cccc3c2n1C(CN1CCOCC1)CO3 (stereo not given) [WIN-55-212-2]  10.9 min
69. CCOP(=O)(OCC)OC(=CCl)c1ccc(Cl)cc1Cl (mixture of isomers) [Chlorfenvinphos (E/Z) Peak 1 (Main)]  11 min
70. O=S1(=O)OCC2C(CO1)C1(Cl)C(Cl)=C(Cl)C2(Cl)C1(Cl)Cl (stereo not given) [Endosulfan-sulfate]  11.1 min
71. CCCCCn1cc(C(=O)c2cccc3ccccc23)c2ccc(O)cc21 [JWH-018-M-6-OH-Ind]  11.2 min
72. CCCCCn1cc(C(=O)NCc2ccccc2)c2ccccc21 [SDB-006]  11.2 min
73. O=C(NC(=O)c1ccccc1Cl)Nc1ccc(OC(F)(F)F)cc1 [Triflumuron]  11.2 min
74. CCC1CCCC(OC2CCC(N(C)C)C(C)O2)C(C)C(=O)C2=CC3C(C=CC4CC(OC5OC(C)C(OC)C(OC)C5OC)CC43)C2CC(=O)O1 (stereo not given) [Spinosyn A]  11.2 min
75. CCCSc1nc(NC2CC2c2ccc(F)c(F)c2)c2nnn(C3CC(OCCO)C(O)C3O)c2n1 (stereo not given) [Ticagrelor]  11.3 min
76. CCOP(=S)(OCC)SCCSCC [Disulfoton]  11.5 min
77. CCOC(=O)N1CCC(=C2c3ccc(Cl)cc3CCc3cccnc32)CC1 [Loratadine]  11.5 min
78. CCOc1cc(CC(=O)NC(CC(C)C)c2ccccc2N2CCCCC2)ccc1C(=O)O (stereo not given) [Repaglinide]  11.9 min
79. CC(C)N1C(=O)N(c2ccccc2)CSC1=NC(C)(C)C [Buprofezin  (Z-isomer. Buprofexin)]  12.2 min
80. CCCCOCN(C(=O)CCl)c1c(CC)cccc1CC [Butachlor]  12.3 min
81. COP(=S)(OC)Oc1cc(Cl)c(Br)cc1Cl [Bromophos (Bromophos-methyl)]  12.7 min
82. CCCCCn1cc(C(=O)c2cccc3ccccc23)cc1-c1cccc(F)c1 [JWH-368]  13 min
83. CC12CCC3C4CCC(=O)C=C4CCC3C1CCC2OC(=O)CCc1ccccc1 (stereo not given) [Nandrolone phenylpropionate]  13.6 min
84. CC1(C)C(C=C(Cl)Cl)C1C(=O)OCc1cccc(Oc2ccccc2)c1 (stereo not given) [Permethrin]  13.9 min
85. CCC(C(=O)O)C1OC(C(C)C(O)C(C)C(=O)C(CC)C2OC3(C=CC(O)C4(CCC(C)(C5CCC(O)(CC)C(C)O5)O4)O3)C(C)CC2C)C(C)CC1C (stereo not given) [Narasin]  16.1 min
